From patent US20250032651A1, “[177LU] LUTETIUM-PSMA I&T COMPOSITION AND DOSIMETRY, KIT, METHOD OF MAKING, AND METHOD OF USING THEREOF” (Curium US LLC, priority 2022, published 2025)
“And” between values parts separate entries of the source, which are not always exact repeats. Identical values can stand only once.

Assay: Normal organ dosimetry Cycle 1: SPECT/CT, TIACs, OLINDA 2.2.3 absorbed radiation dose
Type: in vivo, human
Settings: individual patients/doses
Experimental: This Example presents the biodistribution, dosimetry, and pharmacokinetics (PK) results of a PK/Dosimetry sub-study performed as part of a Phase III trial. Twenty-seven (27) patients were administered a target activity of 7.4±10% GBq of ^177Lu-PSMA-I&T and underwent single photon emission computed tomography (SPECT)/computed tomography (CT) imaging at four timepoints (4 h, 24 h, 48 h, and 168 h). Image data was analysed to compute time-activity curves (TACs) and subsequently time-integrated activity coefficients (TIACs) in each organ of interest and in organs showing appreciable and meaningful ^177Lu-PSMA-I&T activity. Organ Level Internal Dose Assessment (OLINDA 2.2.3) was used to compute organ and whole body absorbed radiation doses for each patient.
All participating sites underwent a rigorous site setup process during which all dose calibrators, scanners, and gamma counters used in the sub-study were calibrated. Sites were allowed to enroll patients in the sub-study only after the completion and approval of all site setup processes by Invicro. Patients underwent SPECT/CT imaging, with anatomical coverage typically extending from the salivary glands to the pelvis, following the administration of a targeted 7.4±10% GBq of ^177Lu-PSMA-I&T at cycle 1. SPECT/CT imaging was performed at four timepoints: 4 h, 24 h, 48 h, and 168 h post-injection. Additionally, a subset of patients imaged at Cycle 1 (16 out of 27), were also imaged at Cycle 3 (Table 2).
The imaging data was analyzed using Invicro's VivoQuant software, a validated software used in a 21 CFR § 11-compliant workflow. The general quantification approach was based on the principles detailed in the Medical Internal Radiation Dose (MIRD) Pamphlet No. 16, No 23, and No 26 as appropriate.
Volume of interest (VOI) (kidneys, bladder, liver, lumbar vertebrae L2-L4, lacrimal glands, salivary glands [parotid and submandibular glands], and whole body) were delineated on each dataset by a trained image analyst. […] Organs were segmented either by drawing the entire contour of the organ, or by placing a sphere in a representative region of the organ and then multiplying by the organ's effective mass (based on patient's height and weight). Segmentation methods for each organ are specified in Table 3 and were consistently applied to each patient.
Clearance of the radiopharmaceutical was derived from a data-appropriate fit of each organ's TAC. Depending on the TAC's shape, the data was fitted with the sum of one, two, or three exponentials, or using a rise and fall model. Fitting was performed with in-house Python software. TIACs were calculated through analytical integration of the curve fit extrapolated to infinity. […] A whole-body TAC was derived from delineating the imaged body. The remainder activity was determined by subtracting the cumulative organ TIACs from the whole body TIAC.
Organ TIACs were input into OLINDA 2.2.3 for the computation of organ and whole-body absorbed doses, using International Commission on Radiological Protection (ICRP)-103 weighing factors. The ICRP-89 derived male phantom was used for dose estimation. Organs and body mass as defined by ICRP-89 were scaled based on height and mass using patient effective mass.^4 The voiding bladder model as implemented in OLINDA was used to determine bladder TIAC, assuming a voiding interval of 4 hours. The human alimentary tract model (HAT model) described in ICRP 100 and implemented in OLINDA was used to compute doses to the small intestine, right colon, left colon and rectum for patients showing clearance through the GI tract. The fraction of injected activity (fIA) cleared via the GI tract was determined by taking the peak fIA in the GI tract over all the imaging timepoints. […] The Red Marrow mass in L2-L4 was assumed to be 6.7% of the total red marrow mass.

What does the source list for `O=C([O-])CC[C@H](NC(=O)N[C@@H](CCCCNC(=O)CCCCCCC(=O)NCCCC[C@@H](NC(=O)[C@@H](Cc1ccccc1)NC(=O)[C@@H](Cc1ccc(O)c(I)c1)NC(=O)CC[C@H](C(=O)[O-])N1CCN(CC(=O)[O-])CCN(CC(=O)[O-])CCN(CC(=O)[O-])CC1)C(=O)[O-])C(=O)[O-])C(=O)[O-].[177Lu+3].[H+].[H+].[H+].[H+].[H+]` [Lu-177 PSMA I&T]?
Kidneys absorbed dose (68.9 µg PSMA I&T content): 0.31 Gy/GBq; Kidneys absorbed dose (71.6 µg PSMA I&T content): 0.36 Gy/GBq; Kidneys absorbed dose (72.1 µg PSMA I&T content): 0.32 Gy/GBq and 0.54 Gy/GBq; Kidneys absorbed dose (76.8 µg PSMA I&T content): 0.23 Gy/GBq; Kidneys absorbed dose (77.0 µg PSMA I&T content): 0.28 Gy/GBq and 0.56 Gy/GBq; Kidneys absorbed dose (77.7 µg PSMA I&T content): 0.41 Gy/GBq; Kidneys absorbed dose (79.0 µg PSMA I&T content): 0.53 Gy/GBq; Kidneys absorbed dose (79.4 µg PSMA I&T content): 0.81 Gy/GBq; Kidneys absorbed dose (79.5 µg PSMA I&T content): 0.30 Gy/GBq and 0.38 Gy/GBq; Kidneys absorbed dose (80.4 µg PSMA I&T content): 0.24 Gy/GBq; Kidneys absorbed dose (82.0 µg PSMA I&T content): 0.17 Gy/GBq; Kidneys absorbed dose (82.2 µg PSMA I&T content): 0.34 Gy/GBq; Kidneys absorbed dose (82.6 µg PSMA I&T content): 0.29 Gy/GBq; Kidneys absorbed dose (85.3 µg PSMA I&T content): 0.55 Gy/GBq; Kidneys absorbed dose (89.2 µg PSMA I&T content): 0.43 Gy/GBq; Kidneys absorbed dose (90.0 µg PSMA I&T content): 0.35 Gy/GBq; Kidneys absorbed dose (92.6 µg PSMA I&T content): 0.05 Gy/GBq and 0.45 Gy/GBq; Kidneys absorbed dose (99.2 µg PSMA I&T content): 0.57 Gy/GBq; Kidneys absorbed dose (105.1 µg PSMA I&T content): 0.48 Gy/GBq; Kidneys absorbed dose (108.5 µg PSMA I&T content): 0.27 Gy/GBq; Kidneys absorbed dose (110.6 µg PSMA I&T content): 0.64 Gy/GBq; Kidneys absorbed dose (119.1 µg PSMA I&T content): 0.28 Gy/GBq; Lacrimal Glands absorbed dose (72.1 µg PSMA I&T content): 0.19 Gy/GBq and 0.20 Gy/GBq; Lacrimal Glands absorbed dose (76.8 µg PSMA I&T content): 0.08 Gy/GBq; Lacrimal Glands absorbed dose (77.0 µg PSMA I&T content): 0.07 Gy/GBq and 0.06 Gy/GBq; Lacrimal Glands absorbed dose (77.7 µg PSMA I&T content): 0.66 Gy/GBq; Lacrimal Glands absorbed dose (79.0 µg PSMA I&T content): 0.16 Gy/GBq; Lacrimal Glands absorbed dose (79.4 µg PSMA I&T content): 0.63 Gy/GBq; Lacrimal Glands absorbed dose (79.5 µg PSMA I&T content): 0.26 Gy/GBq and 0.47 Gy/GBq; Lacrimal Glands absorbed dose (80.4 µg PSMA I&T content): 0.08 Gy/GBq; Lacrimal Glands absorbed dose (82.0 µg PSMA I&T content): 0.07 Gy/GBq; Lacrimal Glands absorbed dose (82.2 µg PSMA I&T content): 0.54 Gy/GBq; Lacrimal Glands absorbed dose (89.2 µg PSMA I&T content): 0.38 Gy/GBq; Lacrimal Glands absorbed dose (90.0 µg PSMA I&T content): 0.09 Gy/GBq; Lacrimal Glands absorbed dose (92.6 µg PSMA I&T content): 0.05 Gy/GBq and 0.04 Gy/GBq; Lacrimal Glands absorbed dose (105.1 µg PSMA I&T content): 1.19 Gy/GBq; Lacrimal Glands absorbed dose (108.5 µg PSMA I&T content): 0.94 Gy/GBq and 1.09 Gy/GBq; Lacrimal Glands absorbed dose (110.6 µg PSMA I&T content): 0.68 Gy/GBq; Lacrimal Glands absorbed dose (119.1 µg PSMA I&T content): 0.62 Gy/GBq; Liver absorbed dose (68.9 µg PSMA I&T content): 0.04 Gy/GBq; Liver absorbed dose (71.6 µg PSMA I&T content): 0.02 Gy/GBq; Liver absorbed dose (72.1 µg PSMA I&T content): 0.02 Gy/GBq; Liver absorbed dose (76.8 µg PSMA I&T content): 0.03 Gy/GBq; Liver absorbed dose (77.0 µg PSMA I&T content): 0.06 Gy/GBq and 0.02 Gy/GBq; Liver absorbed dose (77.7 µg PSMA I&T content): 0.04 Gy/GBq; Liver absorbed dose (79.0 µg PSMA I&T content): 0.03 Gy/GBq; Liver absorbed dose (79.4 µg PSMA I&T content): 0.03 Gy/GBq; Liver absorbed dose (79.5 µg PSMA I&T content): 0.03 Gy/GBq and 0.07 Gy/GBq; Liver absorbed dose (80.4 µg PSMA I&T content): 0.10 Gy/GBq; Liver absorbed dose (82.0 µg PSMA I&T content): 0.05 Gy/GBq; Liver absorbed dose (82.2 µg PSMA I&T content): 0.02 Gy/GBq; Liver absorbed dose (82.6 µg PSMA I&T content): 0.02 Gy/GBq; Liver absorbed dose (85.3 µg PSMA I&T content): 0.02 Gy/GBq; Liver absorbed dose (89.2 µg PSMA I&T content): 0.08 Gy/GBq; Liver absorbed dose (90.0 µg PSMA I&T content): 0.04 Gy/GBq; Liver absorbed dose (92.6 µg PSMA I&T content): 0.09 Gy/GBq and 0.01 Gy/GBq; Liver absorbed dose (99.2 µg PSMA I&T content): 0.04 Gy/GBq; Liver absorbed dose (105.1 µg PSMA I&T content): 0.06 Gy/GBq; Liver absorbed dose (108.5 µg PSMA I&T content): 0.07 Gy/GBq and 0.05 Gy/GBq; Liver absorbed dose (110.6 µg PSMA I&T content): 0.03 Gy/GBq; Liver absorbed dose (119.1 µg PSMA I&T content): 0.02 Gy/GBq; Salivary Glands absorbed dose (68.9 µg PSMA I&T content): 0.11 Gy/GBq; Salivary Glands absorbed dose (71.6 µg PSMA I&T content): 0.16 Gy/GBq; Salivary Glands absorbed dose (72.1 µg PSMA I&T content): 0.06 Gy/GBq and 0.00 Gy/GBq; Salivary Glands absorbed dose (76.8 µg PSMA I&T content): 0.11 Gy/GBq; Salivary Glands absorbed dose (77.0 µg PSMA I&T content): 0.19 Gy/GBq and 0.10 Gy/GBq; Salivary Glands absorbed dose (77.7 µg PSMA I&T content): 0.04 Gy/GBq; Salivary Glands absorbed dose (79.0 µg PSMA I&T content): 0.15 Gy/GBq; Salivary Glands absorbed dose (79.4 µg PSMA I&T content): 0.12 Gy/GBq; Salivary Glands absorbed dose (79.5 µg PSMA I&T content): 0.26 Gy/GBq and 0.19 Gy/GBq; Salivary Glands absorbed dose (80.4 µg PSMA I&T content): 0.20 Gy/GBq; Salivary Glands absorbed dose (82.0 µg PSMA I&T content): 0.32 Gy/GBq; Salivary Glands absorbed dose (82.2 µg PSMA I&T content): 0.03 Gy/GBq; Salivary Glands absorbed dose (82.6 µg PSMA I&T content): 0.16 Gy/GBq; Salivary Glands absorbed dose (85.3 µg PSMA I&T content): 0.09 Gy/GBq; Salivary Glands absorbed dose (89.2 µg PSMA I&T content): 0.39 Gy/GBq; Salivary Glands absorbed dose (90.0 µg PSMA I&T content): 0.80 Gy/GBq; Salivary Glands absorbed dose (92.6 µg PSMA I&T content): 0.13 Gy/GBq and 0.14 Gy/GBq; Salivary Glands absorbed dose (99.2 µg PSMA I&T content): 0.27 Gy/GBq; Salivary Glands absorbed dose (105.1 µg PSMA I&T content): 0.18 Gy/GBq; Salivary Glands absorbed dose (108.5 µg PSMA I&T content): 0.29 Gy/GBq and 0.10 Gy/GBq; Salivary Glands absorbed dose (110.6 µg PSMA I&T content): 0.03 Gy/GBq; Salivary Glands absorbed dose (119.1 µg PSMA I&T content): 0.28 Gy/GBq
